Measured values taken from ChEMBL document CHEMBL3870324, “Asnovolins A-G, Spiromeroterpenoids Isolated from the Fungus Aspergillus novofumigatus, and Suppression of Fibronectin Expression by Asnovolin E” (J Nat Prod, 2016).

How the values were obtained:
[1] = species: Homo sapiens; assay: Inhibition of fibronectin expression in HNDF at 25 uM after 24 hrs by Western blot analysis relative to control; assay type: functional
[2] = species: Homo sapiens; assay: Inhibition of fibronectin expression in HNDF after 24 hrs by Western blot analysis; assay type: functional

**Q.** With `C=C(C)[C@@H]1CC[C@H](C)[C@@]2(C[C@@]3(C)C(=C(C)C(=O)[C@@H](C(=O)OC)[C@@H]3C)O2)[C@@]1(C)CCC(=O)OC` as the molecule, how does the inhibition [1] read?
**A.** The inhibition was 87%.

**Q.** What about the inhibition [2] of the same molecule?
**A.** The inhibition was “Dose-dependent effect”.
